Measured values from ChEMBL document CHEMBL1201862, “PubChem BioAssay data set” (2004).
Activity calls are given as the source filed them.

Columns and labels:
[1] = biological target: T1, Leucine aminopeptidase (Plasmodium falciparum 3D7, UniProt Q8IL11); assay: P. falciparum M17LAP inhibitors, primary screen, biochemical, fluorogenic H-Leu-NHMec substrate, 1536-well (AID 1619); format: functional
T1 sequence (Q8IL11 whole entry): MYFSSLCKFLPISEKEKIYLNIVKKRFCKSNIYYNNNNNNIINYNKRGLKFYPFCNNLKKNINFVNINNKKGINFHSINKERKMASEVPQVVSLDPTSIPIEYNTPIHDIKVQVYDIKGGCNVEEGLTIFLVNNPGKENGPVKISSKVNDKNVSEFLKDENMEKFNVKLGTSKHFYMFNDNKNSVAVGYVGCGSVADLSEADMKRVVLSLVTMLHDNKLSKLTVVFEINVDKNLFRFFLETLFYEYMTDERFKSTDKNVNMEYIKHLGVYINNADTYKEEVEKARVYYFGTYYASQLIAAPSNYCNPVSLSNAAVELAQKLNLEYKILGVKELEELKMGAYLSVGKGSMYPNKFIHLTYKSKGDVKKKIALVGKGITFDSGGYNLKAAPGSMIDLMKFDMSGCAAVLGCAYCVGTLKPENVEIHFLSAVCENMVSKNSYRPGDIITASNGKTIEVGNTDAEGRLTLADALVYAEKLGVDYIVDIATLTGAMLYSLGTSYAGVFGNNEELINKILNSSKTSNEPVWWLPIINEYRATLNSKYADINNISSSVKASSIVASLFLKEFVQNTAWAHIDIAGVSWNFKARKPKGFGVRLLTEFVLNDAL

[2] = biological target: Procathepsin L (Homo sapiens, UniProt P07711); assay: cathepsin L inhibitors, dose response, counter-screen for M1/M17 aminopeptidase inhibitor project, biochemical, QFRET, 1536-well (AID 2214)
[3] = biological target: T2, Aspartyl aminopeptidase (Plasmodium falciparum 3D7, UniProt Q8I2J3); assay: Counterscreen for inhibitors of M1 and M17 aminopeptidases: QFRET-based biochemical high throughput dose response assay for inhibitors of the Plasmodium falciparum M18 Aspartyl Aminopeptidase (PFM18AAP). [Related PubChem assays: 1619 (Screening assay (M17LAP inhibitors).), 1445 (Screening assay (M1AAP inhibitors).)]
T2 sequence (Q8I2J3 whole entry): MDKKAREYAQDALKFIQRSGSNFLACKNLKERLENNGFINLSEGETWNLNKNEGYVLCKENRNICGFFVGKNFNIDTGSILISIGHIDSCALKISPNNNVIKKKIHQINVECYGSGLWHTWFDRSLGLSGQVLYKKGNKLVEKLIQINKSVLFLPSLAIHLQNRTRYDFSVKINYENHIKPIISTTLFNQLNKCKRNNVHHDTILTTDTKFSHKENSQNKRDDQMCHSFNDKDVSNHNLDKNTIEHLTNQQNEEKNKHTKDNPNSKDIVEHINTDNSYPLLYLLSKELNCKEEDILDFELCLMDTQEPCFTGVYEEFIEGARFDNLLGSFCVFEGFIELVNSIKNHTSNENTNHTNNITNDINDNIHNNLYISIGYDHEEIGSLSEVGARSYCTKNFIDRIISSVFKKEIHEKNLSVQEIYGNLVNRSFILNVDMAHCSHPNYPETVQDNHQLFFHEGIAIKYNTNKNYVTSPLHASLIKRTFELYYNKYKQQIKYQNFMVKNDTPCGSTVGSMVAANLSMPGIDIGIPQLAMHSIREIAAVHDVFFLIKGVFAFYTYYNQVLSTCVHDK

[4] = biological target: Multidrug resistance protein CDR2 (Candida albicans (strain SC5314 / ATCC MYA-2876) (Yeast), UniProt P78595); assay: CaCDR2 efflux pump inhibitors in yeast, dose response, S. cerevisiae AD1-8u, singleplex, Cherry Pick1 hits (AID 588604); format: functional
[5] = biological target: MAP/microtubule affinity-regulating kinase 3 (Homo sapiens, UniProt P27448); format: functional;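 further: MARK3 affinity measured as one member of a kinome panel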
[6] = biological target: Serine/threonine-protein kinase PLK3 (Homo sapiens, UniProt Q9H4B4); format: functional
[7] = biological target: Glycogen synthase kinase-3 beta (Homo sapiens, UniProt P49841); format: functional;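 further: value comes from a broad kinome profiling panel, with GSK3B as the panel member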
[8] = biological target: Calcium/calmodulin-dependent protein kinase type II subunit beta (Homo sapiens, UniProt Q13554); format: functional
[9] = biological target: Misshapen-like kinase 1 (Homo sapiens, UniProt Q8N4C8); format: functional;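 further: kinome panel screen with MINK as the panel member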
[10] = biological target: Homeodomain-interacting protein kinase 2 (Homo sapiens, UniProt Q9H2X6); format: functional;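 further: measured within a kinome-wide kinase profiling panel, HIPK2 being one panel member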
[11] = biological target: Tyrosine-protein kinase SYK (Homo sapiens, UniProt P43405); format: functional
[12] = biological target: Serine/threonine-protein kinase PLK1 (Homo sapiens, UniProt P53350); format: functional;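 further: PLK1 measured as one member of a kinome-wide profiling panel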
[13] = biological target: ALK tyrosine kinase receptor (Homo sapiens, UniProt Q9UM73); format: functional;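 further: ALK tested as one member of a kinase panel screen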
[14] = biological target: Cyclin-dependent kinase 8 (Homo sapiens, UniProt P49336); assay: Navigating the Kinome. Panel member name: CDK8; format: functional
[15] = biological target: Tyrosine-protein kinase Lck (Homo sapiens, UniProt P06239); format: functional;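 further: lck was assayed as one member of a kinase panel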
[16] = biological target: Focal adhesion kinase 1 (Homo sapiens, UniProt Q05397); format: functional;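 further: measured as one member of a kinome panel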
[17] = biological target: Serine/threonine-protein kinase pim-1 (Homo sapiens, UniProt P11309); format: functional
[18] = biological target: Tyrosine-protein kinase Fyn (Homo sapiens, UniProt P06241); format: functional
[19] = biological target: Tyrosine-protein kinase BTK (Homo sapiens, UniProt Q06187); format: functional
[20] = biological target: LIM domain kinase 1 (Homo sapiens, UniProt P53667); assay: Navigating the Kinome. Panel member name: LIMK1; format: functional
[21] = biological target: Serine/threonine-protein kinase TAO1 (Homo sapiens, UniProt Q7L7X3); format: functional
[22] = biological target: Casein kinase II subunit alpha (Homo sapiens, UniProt P68400); format: functional
[23] = biological target: Mitogen-activated protein kinase 13 (Homo sapiens, UniProt O15264); format: functional
[24] = biological target: Testis-specific serine/threonine-protein kinase 2 (Homo sapiens, UniProt Q96PF2); format: functional;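 further: part of the Navigating the Kinome panel, target entry STK22B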
[25] = biological target: Macrophage-stimulating protein receptor (Homo sapiens, UniProt Q04912); assay: Navigating the Kinome. Panel member name: MST1R; format: functional
[26] = biological target: Serine/threonine-protein kinase MRCK alpha (Homo sapiens, UniProt Q5VT25); format: functional
[27] = biological target: cGMP-dependent protein kinase 1 (Homo sapiens, UniProt Q13976); format: functional;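 further: value from a kinome panel screen with PRKG1 as the panel member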
[28] = biological target: Glycogen synthase kinase-3 alpha (Homo sapiens, UniProt P49840); format: functional;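 further: GSK3A result taken from a broad kinome-wide kinase panel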
[29] = biological target: Cyclin-dependent kinase 5 (Homo sapiens, UniProt Q00535); format: functional;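 further: CDK5 measured as one member of a kinase profiling panel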
[30] = biological target: Cyclin-dependent kinase 1 (Homo sapiens, UniProt P06493); format: functional;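 further: Kinome-wide panel profiling, with the target listed as panel member CDC2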
[31] = biological target: Mitogen-activated protein kinase 9 (Homo sapiens, UniProt P45984); format: functional;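 further: value from a kinome panel profiling assay, MAPK9 panel entry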
[32] = biological target: Serine/threonine-protein kinase D3 (Homo sapiens, UniProt O94806); format: functional;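 further: determined within a kinase panel screen, with PRKCN as the panel member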
[33] = biological target: Dual specificity tyrosine-phosphorylation-regulated kinase 3 (Homo sapiens, UniProt O43781); format: functional;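 further: measured as one member of a broad kinase panel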
[34] = biological target: Calcium/calmodulin-dependent protein kinase type II subunit delta (Homo sapiens, UniProt Q13557); format: functional
[35] = biological target: Mitogen-activated protein kinase 14 (Homo sapiens, UniProt Q16539); format: functional;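 further: part of a kinome-wide panel, MAPK14 entry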
[36] = biological target: Casein kinase I isoform gamma-1 (Homo sapiens, UniProt Q9HCP0); format: functional;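 further: measured as the CSNK1G1 member of a kinome profiling panel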
[37] = biological target: Dual specificity tyrosine-phosphorylation-regulated kinase 4 (Homo sapiens, UniProt Q9NR20); format: functional
[38] = biological target: Cyclin-dependent kinase 9 (Homo sapiens, UniProt P50750); format: functional;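 further: value from the CDK9 entry of a kinome-spanning kinase panel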
[39] = biological target: Cyclin-dependent kinase 2 (Homo sapiens, UniProt P24941); format: functional;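 further: CDK2 measured as one member of a broad kinome profiling panel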
[40] = biological target: Cell division cycle 7-related protein kinase (Homo sapiens, UniProt O00311); format: functional;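 further: value obtained from a kinome-wide kinase panel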
[41] = biological target: RAC-gamma serine/threonine-protein kinase (Homo sapiens, UniProt Q9Y243); format: functional
[42] = biological target: MAP kinase-activated protein kinase 3 (Homo sapiens, UniProt Q16644); format: functional;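 further: value comes from a kinome-wide profiling panel in which MAPKAPK3 is one of the panel members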
[43] = biological target: Casein kinase I isoform delta (Homo sapiens, UniProt P48730); format: functional;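 further: measured as one member (CSNK1D) of a kinome panel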
[44] = biological target: Protein kinase C iota type (Homo sapiens, UniProt P41743); format: functional;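 further: measured within a kinome-wide kinase panel, PRKCI as panel member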
[45] = biological target: Vascular endothelial growth factor receptor 3 (Homo sapiens, UniProt P35916); format: functional;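 further: value from a kinome-wide profiling panel, with FLT4 as the panel member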
[46] = biological target: Tyrosine-protein kinase Blk (Homo sapiens, UniProt P51451); format: functional;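 further: obtained as one member of a kinome-wide kinase assay panel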
[47] = biological target: Mitogen-activated protein kinase kinase kinase 20 (Homo sapiens, UniProt Q9NYL2); format: functional
[48] = biological target: Protein kinase C gamma type (Homo sapiens, UniProt P05129); format: functional
[49] = biological target: 5'-AMP-activated protein kinase catalytic subunit alpha-1 (Homo sapiens, UniProt Q13131); format: functional
[50] = biological target: Lymphokine-activated killer T-cell-originated protein kinase (Homo sapiens, UniProt Q96KB5); format: functional;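 further: value comes from a kinase panel screen in which TOPK was one of the panel members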
[51] = biological target: RAC-alpha serine/threonine-protein kinase (Homo sapiens, UniProt P31749); format: functional;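 further: AKT1 affinity measured as one member of a kinome-wide kinase profiling panel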
[52] = biological target: Cyclin-dependent kinase 7 (Homo sapiens, UniProt P50613); format: functional;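 further: value comes from a kinome-wide kinase profiling panel in which CDK7 is one member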
[53] = biological target: Receptor tyrosine-protein kinase erbB-4 (Homo sapiens, UniProt Q15303); format: functional;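 further: ERBB4 member of a kinome-wide kinase profiling panel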
[54] = biological target: cAMP-dependent protein kinase catalytic subunit PRKX (Homo sapiens, UniProt P51817); format: functional
[55] = biological target: Mitogen-activated protein kinase kinase kinase kinase 5 (Homo sapiens, UniProt Q9Y4K4); format: functional;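 further: measured as one member of a kinome-spanning kinase panel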
[56] = biological target: Wee1-like protein kinase (Homo sapiens, UniProt P30291); assay: Navigating the Kinome. Panel member name: WEE1; format: functional
[57] = biological target: Tyrosine-protein kinase Lyn (Homo sapiens, UniProt P07948); format: functional;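 further: lyn as one member of a kinase panel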
[58] = biological target: Serine/threonine-protein kinase pim-2 (Homo sapiens, UniProt Q9P1W9); format: functional;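 further: value comes from a broad kinase panel profiling study in which PIM2 was one of the panel members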

Chain of Cyclin-dependent kinase 8 (P49336 whole entry): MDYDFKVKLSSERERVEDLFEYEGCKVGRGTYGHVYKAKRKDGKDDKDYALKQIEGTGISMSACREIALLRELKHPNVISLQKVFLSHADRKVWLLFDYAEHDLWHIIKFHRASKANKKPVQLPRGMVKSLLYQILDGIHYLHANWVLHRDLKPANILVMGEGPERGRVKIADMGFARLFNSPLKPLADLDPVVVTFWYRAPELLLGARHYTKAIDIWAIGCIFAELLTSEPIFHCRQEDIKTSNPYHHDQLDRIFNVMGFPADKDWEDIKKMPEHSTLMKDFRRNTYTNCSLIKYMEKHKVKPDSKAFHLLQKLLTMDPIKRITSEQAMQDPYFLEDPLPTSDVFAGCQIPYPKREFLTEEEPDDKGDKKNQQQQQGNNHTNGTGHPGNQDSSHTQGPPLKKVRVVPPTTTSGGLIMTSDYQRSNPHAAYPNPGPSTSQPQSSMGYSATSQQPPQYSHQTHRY
Chain of Misshapen-like kinase 1 (Q8N4C8 whole entry): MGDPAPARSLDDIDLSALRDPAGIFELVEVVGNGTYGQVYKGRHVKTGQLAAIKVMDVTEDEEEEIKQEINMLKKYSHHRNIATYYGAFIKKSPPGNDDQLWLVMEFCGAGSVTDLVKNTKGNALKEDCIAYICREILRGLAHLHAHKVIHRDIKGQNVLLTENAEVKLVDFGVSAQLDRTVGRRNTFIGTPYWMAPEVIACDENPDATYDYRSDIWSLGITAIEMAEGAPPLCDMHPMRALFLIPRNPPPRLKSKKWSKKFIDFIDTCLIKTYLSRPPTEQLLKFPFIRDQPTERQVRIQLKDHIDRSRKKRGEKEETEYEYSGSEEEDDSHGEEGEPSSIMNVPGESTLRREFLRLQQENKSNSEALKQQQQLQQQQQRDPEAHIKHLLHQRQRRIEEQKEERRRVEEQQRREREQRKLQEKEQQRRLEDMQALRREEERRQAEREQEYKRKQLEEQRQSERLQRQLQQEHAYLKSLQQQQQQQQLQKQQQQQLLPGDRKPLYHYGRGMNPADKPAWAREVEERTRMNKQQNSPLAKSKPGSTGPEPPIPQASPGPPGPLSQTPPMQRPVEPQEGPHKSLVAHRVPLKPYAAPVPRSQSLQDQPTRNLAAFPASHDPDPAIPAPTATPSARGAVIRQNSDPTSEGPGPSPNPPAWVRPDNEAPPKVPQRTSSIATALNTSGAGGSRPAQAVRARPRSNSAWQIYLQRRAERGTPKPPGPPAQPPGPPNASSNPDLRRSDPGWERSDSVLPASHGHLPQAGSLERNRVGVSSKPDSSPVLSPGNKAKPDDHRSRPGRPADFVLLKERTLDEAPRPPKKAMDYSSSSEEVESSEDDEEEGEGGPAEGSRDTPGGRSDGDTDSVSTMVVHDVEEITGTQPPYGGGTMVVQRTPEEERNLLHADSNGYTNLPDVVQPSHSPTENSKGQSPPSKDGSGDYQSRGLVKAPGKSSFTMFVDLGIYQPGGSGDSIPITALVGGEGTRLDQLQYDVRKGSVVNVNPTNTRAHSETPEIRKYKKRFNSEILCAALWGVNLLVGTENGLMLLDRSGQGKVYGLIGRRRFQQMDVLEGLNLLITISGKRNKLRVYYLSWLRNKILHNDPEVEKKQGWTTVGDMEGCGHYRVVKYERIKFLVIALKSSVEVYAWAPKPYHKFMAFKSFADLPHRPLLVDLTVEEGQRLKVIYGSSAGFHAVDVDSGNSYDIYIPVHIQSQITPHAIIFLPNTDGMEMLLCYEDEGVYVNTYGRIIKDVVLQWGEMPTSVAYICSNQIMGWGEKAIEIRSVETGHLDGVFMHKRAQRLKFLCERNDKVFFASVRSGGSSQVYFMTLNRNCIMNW
Chain of Serine/threonine-protein kinase pim-1 (P11309 whole entry): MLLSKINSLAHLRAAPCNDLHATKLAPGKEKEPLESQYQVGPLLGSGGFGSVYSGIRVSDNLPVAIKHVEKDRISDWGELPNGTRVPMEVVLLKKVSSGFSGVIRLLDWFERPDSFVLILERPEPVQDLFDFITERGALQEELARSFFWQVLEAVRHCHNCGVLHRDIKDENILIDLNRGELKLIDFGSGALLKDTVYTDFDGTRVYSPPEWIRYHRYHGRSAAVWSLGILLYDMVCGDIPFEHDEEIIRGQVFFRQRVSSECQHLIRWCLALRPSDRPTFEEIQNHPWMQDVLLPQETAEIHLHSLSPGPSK
Chain of Tyrosine-protein kinase BTK (Q06187 whole entry, the tested form may be a part): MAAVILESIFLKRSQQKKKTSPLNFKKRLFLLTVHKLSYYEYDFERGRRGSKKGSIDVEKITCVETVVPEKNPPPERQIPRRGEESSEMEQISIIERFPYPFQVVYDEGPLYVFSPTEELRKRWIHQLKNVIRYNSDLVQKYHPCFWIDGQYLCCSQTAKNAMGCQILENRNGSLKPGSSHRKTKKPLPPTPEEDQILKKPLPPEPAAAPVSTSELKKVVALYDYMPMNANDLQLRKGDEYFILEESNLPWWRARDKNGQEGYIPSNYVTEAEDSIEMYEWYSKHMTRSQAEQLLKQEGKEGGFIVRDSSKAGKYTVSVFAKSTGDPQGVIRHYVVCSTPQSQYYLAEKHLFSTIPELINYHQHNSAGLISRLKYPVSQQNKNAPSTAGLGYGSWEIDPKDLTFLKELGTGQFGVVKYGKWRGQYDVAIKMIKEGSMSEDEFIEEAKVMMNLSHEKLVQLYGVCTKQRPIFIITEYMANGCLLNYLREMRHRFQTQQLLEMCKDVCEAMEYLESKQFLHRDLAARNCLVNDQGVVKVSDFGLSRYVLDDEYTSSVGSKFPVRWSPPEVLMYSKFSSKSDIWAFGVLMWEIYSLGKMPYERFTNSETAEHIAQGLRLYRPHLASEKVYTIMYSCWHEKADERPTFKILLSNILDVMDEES
Chain of Wee1-like protein kinase (P30291 whole entry): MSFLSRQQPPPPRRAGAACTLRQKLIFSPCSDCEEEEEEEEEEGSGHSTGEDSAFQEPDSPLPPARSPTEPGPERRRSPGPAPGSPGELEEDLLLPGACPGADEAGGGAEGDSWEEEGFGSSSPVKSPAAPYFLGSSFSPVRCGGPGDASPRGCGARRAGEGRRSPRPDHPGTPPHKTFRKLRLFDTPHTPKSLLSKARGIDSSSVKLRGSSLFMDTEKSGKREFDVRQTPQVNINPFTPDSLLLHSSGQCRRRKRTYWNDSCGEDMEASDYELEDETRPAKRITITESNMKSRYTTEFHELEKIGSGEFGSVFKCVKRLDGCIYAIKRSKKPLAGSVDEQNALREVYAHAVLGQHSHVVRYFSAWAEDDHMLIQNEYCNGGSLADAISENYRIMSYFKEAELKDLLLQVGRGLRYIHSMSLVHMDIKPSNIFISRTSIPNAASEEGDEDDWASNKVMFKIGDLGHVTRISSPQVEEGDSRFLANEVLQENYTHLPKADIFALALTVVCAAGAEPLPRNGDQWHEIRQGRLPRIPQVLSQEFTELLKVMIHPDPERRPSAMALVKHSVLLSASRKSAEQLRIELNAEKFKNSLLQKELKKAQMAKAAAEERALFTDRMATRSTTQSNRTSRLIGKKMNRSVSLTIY
Chain of Calcium/calmodulin-dependent protein kinase type II subunit beta (Q13554 whole entry): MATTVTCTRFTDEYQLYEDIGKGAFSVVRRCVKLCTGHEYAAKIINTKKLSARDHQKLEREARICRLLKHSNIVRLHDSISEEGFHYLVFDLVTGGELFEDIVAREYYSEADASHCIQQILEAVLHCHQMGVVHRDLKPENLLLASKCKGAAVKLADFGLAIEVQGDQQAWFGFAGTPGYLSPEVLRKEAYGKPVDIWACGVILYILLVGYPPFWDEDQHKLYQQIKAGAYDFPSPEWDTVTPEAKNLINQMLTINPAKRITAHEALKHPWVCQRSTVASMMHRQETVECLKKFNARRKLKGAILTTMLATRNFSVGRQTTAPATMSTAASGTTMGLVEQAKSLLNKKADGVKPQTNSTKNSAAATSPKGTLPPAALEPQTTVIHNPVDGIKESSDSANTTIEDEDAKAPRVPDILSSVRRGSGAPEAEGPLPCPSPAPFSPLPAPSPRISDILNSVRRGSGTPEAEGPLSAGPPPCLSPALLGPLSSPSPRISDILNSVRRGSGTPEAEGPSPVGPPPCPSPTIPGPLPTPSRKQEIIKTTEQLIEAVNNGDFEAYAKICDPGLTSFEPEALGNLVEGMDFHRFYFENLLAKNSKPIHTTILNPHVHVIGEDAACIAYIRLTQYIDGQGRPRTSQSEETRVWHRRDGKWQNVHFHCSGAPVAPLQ
Chain of LIM domain kinase 1 (P53667 whole entry, the tested form may be a part): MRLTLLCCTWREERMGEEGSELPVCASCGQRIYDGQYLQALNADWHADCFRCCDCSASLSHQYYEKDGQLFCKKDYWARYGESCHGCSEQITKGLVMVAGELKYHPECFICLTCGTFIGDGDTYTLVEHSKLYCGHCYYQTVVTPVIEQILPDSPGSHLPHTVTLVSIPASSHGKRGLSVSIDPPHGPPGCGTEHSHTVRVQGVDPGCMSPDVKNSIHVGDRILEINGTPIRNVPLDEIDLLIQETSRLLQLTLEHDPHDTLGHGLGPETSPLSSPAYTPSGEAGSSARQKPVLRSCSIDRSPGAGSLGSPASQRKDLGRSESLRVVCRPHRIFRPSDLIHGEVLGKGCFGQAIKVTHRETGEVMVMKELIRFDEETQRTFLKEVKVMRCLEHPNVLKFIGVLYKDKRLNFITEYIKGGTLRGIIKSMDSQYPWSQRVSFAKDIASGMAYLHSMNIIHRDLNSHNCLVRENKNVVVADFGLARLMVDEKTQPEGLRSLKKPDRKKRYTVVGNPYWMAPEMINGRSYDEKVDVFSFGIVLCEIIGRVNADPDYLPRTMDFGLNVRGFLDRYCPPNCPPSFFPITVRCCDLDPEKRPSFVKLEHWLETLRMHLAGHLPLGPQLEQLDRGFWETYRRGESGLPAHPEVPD
Chain of Cyclin-dependent kinase 1 (P06493 whole entry): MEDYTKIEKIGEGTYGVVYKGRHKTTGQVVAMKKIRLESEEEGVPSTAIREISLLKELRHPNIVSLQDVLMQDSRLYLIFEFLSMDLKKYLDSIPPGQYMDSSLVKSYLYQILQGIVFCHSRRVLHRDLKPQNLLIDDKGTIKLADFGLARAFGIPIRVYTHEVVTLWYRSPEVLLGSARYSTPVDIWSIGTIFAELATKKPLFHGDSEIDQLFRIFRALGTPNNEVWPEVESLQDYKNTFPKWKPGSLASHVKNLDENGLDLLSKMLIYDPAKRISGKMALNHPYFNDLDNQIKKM

Cc1cc(C(=O)COC(=O)c2ccc[nH]c2=O)c(C)n1-c1ccc(F)cc1
> 59.6 µM (not active): IC50 [2]
active: IC50 [1] 1.98 µM | EC50 [4] 6.22 µM
> 73.5 µM (not active): IC50 [3]

Cc1ccc(Nc2c(C(=O)O)n(CCCOc3cccc4ccccc34)c3cccc(-c4ccccc4C)c23)cc1
active: Ki [5] 3.98 µM | Ki [6] 3.16 µM | Ki [7] 3.98 µM | Ki [8] 6.31 µM | Ki [9] 6.31 µM | Ki [10] 3.16 µM | Ki [11] 1.26 µM | Ki [12] 2.51 µM

CC(C)(C)c1cc(NC(=O)C(=O)c2cccc3ccccc23)n(-c2ccc(OCC(=O)NCCO)cc2)n1
inactive: Ki [13] > 6.31 µM | Ki [15] > 6.31 µM | Ki [16] > 6.31 µM | Ki [17] > 6.31 µM | Ki [18] > 6.31 µM | Ki [19] > 6.31 µM | Ki [21] > 6.31 µM
active: Ki [14] 1.58 µM | Ki [20] 0.501 µM

COc1cc(N2CCC(N3CCN(C)CC3)CC2)ccc1Nc1ncc(Cl)c(Nc2ccccc2S(=O)(=O)C(C)C)n1 [TAE-684]
active: Ki [24] 0.01 µM | Ki [25] 0.126 µM | Ki [26] 3.98 µM | Ki [27] 1.58 µM | Ki [29] 0.0794 µM | Ki [30] 0.316 µM | Ki [31] 0.398 µM | Ki [32] 0.0316 µM | Ki [34] 0.00398 µM | Ki [45] 0.00794 µM | Ki [46] 0.0631 µM | Ki [9] 1 µM | Ki [49] 0.01 µM | Ki [52] 0.0794 µM | Ki [53] 0.02 µM | Ki [55] 0.0794 µM | Ki [57] 0.0794 µM
6.9: pKi [39]
inactive: Ki [22] > 2.51 µM | Ki [23] > 7.94 µM | Ki [14] > 3.98 µM | Ki [28] > 3.16 µM | Ki [33] > 6.31 µM | Ki [35] > 3.98 µM | Ki [36] > 6.31 µM | Ki [37] > 7.94 µM | Ki [38] > 1.58 µM | Ki [40] > 1 µM | Ki [41] > 10 µM | Ki [42] > 10 µM | Ki [43] > 7.94 µM | Ki [44] > 5.01 µM | Ki [17] > 7.94 µM | Ki [47] > 7.94 µM | Ki [48] > 1 µM | Ki [50] > 10 µM | Ki [51] > 7.94 µM | Ki [54] > 1 µM | Ki [56] > 0.251 µM | Ki [58] > 1.58 µM
